Data set [1] has as its target Glycogen phosphorylase, muscle form, Oryctolagus cuniculus (UniProt P00489). Nature of the data set: Inhibition of glycogen phosphorylase b.
The target of data set [2] is T1, Glycogen phosphorylase, muscle form (Oryctolagus cuniculus, UniProt P00489).
T1 sequence (P00489 whole entry): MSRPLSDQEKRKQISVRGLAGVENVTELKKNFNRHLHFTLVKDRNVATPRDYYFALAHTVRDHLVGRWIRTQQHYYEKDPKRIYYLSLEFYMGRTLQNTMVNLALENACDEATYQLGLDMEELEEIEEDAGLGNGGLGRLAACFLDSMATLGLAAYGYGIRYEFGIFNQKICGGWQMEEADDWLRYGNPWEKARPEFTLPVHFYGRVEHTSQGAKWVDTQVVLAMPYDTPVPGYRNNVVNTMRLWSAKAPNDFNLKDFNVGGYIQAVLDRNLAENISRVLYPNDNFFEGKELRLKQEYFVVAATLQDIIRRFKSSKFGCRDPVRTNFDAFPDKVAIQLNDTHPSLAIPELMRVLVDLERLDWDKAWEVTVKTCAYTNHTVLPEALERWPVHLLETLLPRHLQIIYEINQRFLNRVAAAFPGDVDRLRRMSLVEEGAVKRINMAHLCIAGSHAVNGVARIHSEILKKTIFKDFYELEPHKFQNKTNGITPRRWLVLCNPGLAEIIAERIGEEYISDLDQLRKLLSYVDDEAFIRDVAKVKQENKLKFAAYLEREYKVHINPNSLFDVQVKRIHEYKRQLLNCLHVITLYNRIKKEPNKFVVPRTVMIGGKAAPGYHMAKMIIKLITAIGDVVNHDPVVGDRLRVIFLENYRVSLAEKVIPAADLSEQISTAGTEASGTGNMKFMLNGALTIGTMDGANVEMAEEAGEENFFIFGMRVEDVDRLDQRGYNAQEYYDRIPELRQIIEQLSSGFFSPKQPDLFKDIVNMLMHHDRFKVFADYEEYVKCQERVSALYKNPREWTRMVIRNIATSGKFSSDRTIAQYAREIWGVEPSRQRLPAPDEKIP
Briefly: Competitive inhibition of rabbit skeletal muscle glycogen phosphorylase b using Glc-1-P as substrate. Also on record: species or system Muscle tissue.

In data set [3] the target is T2, Glycogen phosphorylase, muscle form (Homo sapiens, UniProt P11217).
T2 sequence (P11217 whole entry): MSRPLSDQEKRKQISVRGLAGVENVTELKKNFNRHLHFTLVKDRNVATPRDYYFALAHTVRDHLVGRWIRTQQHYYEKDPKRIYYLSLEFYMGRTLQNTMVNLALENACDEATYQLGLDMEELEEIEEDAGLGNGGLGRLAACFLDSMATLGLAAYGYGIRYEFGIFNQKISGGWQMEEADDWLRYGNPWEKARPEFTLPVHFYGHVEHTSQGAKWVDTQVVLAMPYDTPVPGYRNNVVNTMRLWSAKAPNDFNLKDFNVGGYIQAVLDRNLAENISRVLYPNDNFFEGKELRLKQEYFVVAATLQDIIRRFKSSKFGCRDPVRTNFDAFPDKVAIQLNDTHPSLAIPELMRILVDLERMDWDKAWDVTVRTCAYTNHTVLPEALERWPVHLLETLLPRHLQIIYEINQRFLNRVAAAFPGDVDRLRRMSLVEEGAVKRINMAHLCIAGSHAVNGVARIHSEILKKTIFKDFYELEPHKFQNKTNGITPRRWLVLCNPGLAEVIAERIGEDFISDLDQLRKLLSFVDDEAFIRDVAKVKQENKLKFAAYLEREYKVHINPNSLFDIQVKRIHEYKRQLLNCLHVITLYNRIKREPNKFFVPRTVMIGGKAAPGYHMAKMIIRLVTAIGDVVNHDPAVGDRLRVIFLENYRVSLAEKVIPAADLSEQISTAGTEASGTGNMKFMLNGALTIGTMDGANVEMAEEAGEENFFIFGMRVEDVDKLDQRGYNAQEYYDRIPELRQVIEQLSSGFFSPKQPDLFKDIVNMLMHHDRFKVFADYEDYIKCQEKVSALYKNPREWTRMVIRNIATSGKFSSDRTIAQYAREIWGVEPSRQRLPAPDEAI
Nature of the data set: Inhibition of glycogen phosphorylase b in human HepG2 cells after 3 hrs. It counts as cell-based.

Data set [4] relates to HepG2. Nature of the data set: Cytotoxicity against human HepG2 cells up to 150 uM after 6 hrs by MTT assay. It is filed as cell-based. To be noted: hepg2, 6 h.
The test system of data set [5] is HepG2. Briefly: Cytotoxicity against human HepG2 cells assessed as decrease in viability up to 500 uM after 6 hrs by MTT assay relative to control. Particulars: hepg2, 6 h. It counts as cell-based.

For orientation: Ki means the equilibrium dissociation constant of an inhibitor or competing ligand from its target. A higher Ki goes with weaker binding. In general, IC50 refers to the concentration that gives 50% inhibition.

Compound `O=c1[nH]c(=O)n([C@@H]2O[C@H](CO)[C@@H](O)[C@H](O)[C@H]2O)cc1I` gave a Ki in data set [1] of 1.94 µM.

As for `CCCC#Cc1cn([C@@H]2O[C@H](CO)[C@@H](O)[C@H](O)[C@H]2O)c(=O)[nH]c1=O`, the Ki in data set [2] came out at 303 µM.

In data set [2], `CCCCCC#Cc1cn([C@@H]2O[C@H](CO)[C@@H](O)[C@H](O)[C@H]2O)c(=O)[nH]c1=O` yielded an IC50 of 6100 µM. This counts as millimolar.

As for `C#Cc1cn([C@@H]2O[C@H](CO)[C@@H](O)[C@H](O)[C@H]2O)c(=O)[nH]c1=O`, the IC50 in data set [3] was found to be 291 µM. Besides, the Activity entry in the data set with HepG2 [4] is “Non-toxic”; with HepG2 [5], 10%. Further, the Ki in data set [2] turned out to be 4.7 µM.

Compound `CCCc1cc2cn([C@@H]3O[C@H](CO)[C@@H](O)[C@H](O)[C@H]3O)c(=O)nc2o1` yielded a Ki in data set [2] of 32.4 µM.

As for `CCCCCc1cc2cn([C@@H]3O[C@H](CO)[C@@H](O)[C@H](O)[C@H]3O)c(=O)nc2o1`, the affinity in data set [2] corresponds to a Ki of 33.4 µM. This Ki and that of the compound before are within 1.5-fold of each other.

`O=c1[nH]c(=O)n([C@@H]2O[C@H](CO)[C@@H](O)[C@H](O)[C@H]2O)cc1Cl`: the Ki in data set [2] and in data set [1] was 1.02 µM throughout.

In turn, `O=c1[nH]c(=O)n([C@@H]2O[C@H](CO)[C@@H](O)[C@H](O)[C@H]2O)cc1Br` showed a Ki in data set [1] of 3.27 µM.

The record behind these values is ChEMBL document CHEMBL2040778, “The binding of C5-alkynyl and alkylfurano[2,3-d]pyrimidine glucopyranonucleosides to glycogen phosphorylase b: synthesis, biochemical and biological assessment” (Eur J Med Chem, 2012).
